Among the data in US12552772B2, “2-pyrazole anilines and related analogs for inhibiting YAP/TAZ-TEAD” (KATHOLIEKE UNIVERSITEIT LEUVEN, priority 2021, dated 2026) are EC50 values, retold here.

A word on the EC50: it is the midpoint of the concentration-response curve.

The assay deals with YAP/TAZ-TEAD transcription. The assay can be described thus: Reporter gene assay for measuring the inhibition of YAP/TAZ-TEAD transcription (TEAD-responsive element luciferase reporter in Hek293T cells). The assay is classed as cell-based. As to conditions: Homo sapiens, HEK-293T, 24 hours incubation. The procedure: Hek293T cells are cultured in DMEM supplemented with 10% fetal bovine serum, Sodium pyruvate, Sodium bicarbonate, L-glutamine. The cells are harvested and transiently transfected with TEAD-responsive element luciferase reporter. Transfected cells are plated in 384-wells plate containing pre-diluted compounds. After 24 hours incubation at 37° C./5% CO2, assay plates were cooled down to RT and levelled to an equal volume per well, prior to the addition of 25 uL luciferase substrate SteadyLite (Perkin Elmer)/well. The plate was shaken for 10 min at 600 rpm, centrifuged for 1 min at 500 rpm and measured with an Envision reader (PerkinElmer). The amount of relative light units produced by the TEAD reporter is used to calculated percent of inhibition.
The percent of reporter inhibition was calculated in the presence of a positive control inhibitor (100% inhibition) versus a condition with the presence of the vehicle basal activity of the reporter (0% inhibition). The ability of a test compound to inhibit this activity was determined as: Percentage inhibition=[1−((RLU determined in the presence of vehicle−RLU determined for sample with test compound present) divided by (RLU determined in the presence of vehicle−RLU determined for sample with positive control inhibitor))]*100
The activities of the example compounds tested are depicted in the table below. The activity ranges A, B and C refer to EC50 values in the reporter gene assay as described as follows: “A”: EC50<1 μM; “B”: 1 μM s EC50≤20 μM and “C”: EC50>20 μM, NT=not tested.
On the technique in general: In a reporter assay the amount or activity of a reporter protein is the signal.
`c1ccc(-c2cccc(-c3ccn(CCc4cccnc4)n3)c2)cc1` [compound 023] came in with an EC50 of 1 to 20 µM. To `Cn1ccc(Cn2ccc(-c3cccc(-c4ccccc4)c3)n2)cc1=O` [compound 024, 4-((3-([1,1′-biphenyl]-3-yl)-1H-pyrazol-1-yl)methyl)-1-methylpyridin-2(1H)-one] belongs 1 to 20 µM; to `c1ccc(-c2cccc(-c3ccn(CCN4CCOCC4)n3)c2)cc1` [compound 025, 4-(2-(3-([1,1′-biphenyl]-3-yl)-1H-pyrazol-1-yl)ethyl)morpholine], 1 to 20 µM; to `c1ccc(-c2cccc(-c3ccn(CC4CCOCC4)n3)c2)cc1` [compound 026, 3-([1,1′-biphenyl]-3-yl)-1-((tetrahydro-2H-pyran-4-yl)methyl)-1H-pyrazole], above 20 µM.

In turn, `N#Cc1ccc(Cn2ccc(-c3cccc(-c4ccccc4)c3)n2)cn1` [compound 027, 5-((3-([1,1′-biphenyl]-3-yl)-1H-pyrazol-1-yl)methyl)picolinonitrile] showed an EC50 of 1 to 20 µM. To `NC(=O)c1ccc(Cn2ccc(-c3cccc(-c4ccccc4)c3)n2)cn1` [compound 028, 5-((3-([1,1′-biphenyl]-3-yl)-1H-pyrazol-1-yl)methyl)picolinamide] belongs 1 to 20 µM; to `NCc1ccc(Cn2ccc(-c3cccc(-c4ccccc4)c3)n2)cn1` [compound 029, (5-((3-([1,1′-biphenyl]-3-yl)-1H-pyrazol-1-yl)methyl)pyridin-2-yl)methanamine], 1 to 20 µM. To `c1ccc(-c2cccc(-c3ccn(CC4CCNCC4)n3)c2)cc1` [compound 030, 4-((3-([1,1′-biphenyl]-3-yl)-1H-pyrazol-1-yl)methyl)piperidine] belongs 1 to 20 µM; to `CC(=O)N1CCC(Cn2ccc(-c3cccc(-c4ccccc4)c3)n2)CC1` [compound 031, 1-(4-((3-([1,1′-biphenyl]-3-yl)-1H-pyrazol-1-yl)methyl)piperidin-1-yl)ethan-1-one], 1 to 20 µM.

Compound `CN1CCC(Cn2ccc(-c3cccc(-c4ccccc4)c3)n2)CC1` [compound 032, 4-((3-([1,1′-biphenyl]-3-yl)-1H-pyrazol-1-yl)methyl)-1-methylpiperidine] came in with an EC50 of 1 to 20 µM. In the case of `C=Cc1ccc(Cn2ccc(-c3cccc(-c4ccccc4)c3)n2)cn1` [compound 033, 5-((3-([1,1′-biphenyl]-3-yl)-1H-pyrazol-1-yl)methyl)-2-vinylpyridine] it was 1 to 20 µM. `Nc1ccc(Cn2ccc(-c3cccc(-c4ccccc4)c3)n2)cn1` [compound 034, 5-((3-([1,1′-biphenyl]-3-yl)-1H-pyrazol-1-yl)methyl)pyridin-2-amine]: the concentration for a half-maximal effect (EC50) is above 20 µM.

Take `C=Cc1cc(Cn2ccc(-c3cccc(-c4ccccc4)c3)n2)ccn1` [compound 035, 4-((3-([1,1′-biphenyl]-3-yl)-1H-pyrazol-1-yl)methyl)-2-vinylpyridine]: the EC50 lay within 1 to 20 µM. In the case of `CNc1cc(Cn2ccc(-c3cccc(-c4ccccc4)c3)n2)ccn1` [compound 036, 4-((3-([1,1′-biphenyl]-3-yl)-1H-pyrazol-1-yl)methyl)-N-methylpyridin-2-amine] it was 1 to 20 µM; in that of `C=CC(=O)Nc1ccc(Cn2ccc(-c3cccc(-c4ccccc4)c3)n2)cn1` [compound 037, N-(5-((3-([1,1′-biphenyl]-3-yl)-1H-pyrazol-1-yl)methyl)pyridin-2-yl)acrylamide], 1 to 20 µM; in that of `O=C1CCN1c1ccc(Cn2ccc(-c3cccc(-c4ccccc4)c3)n2)cn1` [compound 038, 1-(5-((3-([1,1′-biphenyl]-3-yl)-1H-pyrazol-1-yl)methyl)pyridin-2-yl)azetidin-2-one], above 20 µM. To `CCC(=O)Nc1ccc(Cn2ccc(-c3cccc(-c4ccccc4)c3)n2)cn1` [compound 039, N-(5-((3-([1,1′-biphenyl]-3-yl)-1H-pyrazol-1-yl)methyl)pyridin-2-yl)propionamide] belongs 1 to 20 µM. In the case of `O=C(O)c1cncc(Cn2ccc(-c3cccc(-c4ccccc4)c3)n2)c1` [compound 040, 5-((3-([1,1′-biphenyl]-3-yl)-1H-pyrazol-1-yl)methyl)nicotinic acid] it was above 20 µM; in that of `NC(=O)c1cncc(Cn2ccc(-c3cccc(-c4ccccc4)c3)n2)c1` [compound 041, 5-((3-([1,1′-biphenyl]-3-yl)-1H-pyrazol-1-yl)methyl)nicotinamide], 1 to 20 µM; in that of `O=C(O)c1ccncc1Cn1ccc(-c2cccc(-c3ccccc3)c2)n1` [compound 042, 3-((3-([1,1′-biphenyl]-3-yl)-1H-pyrazol-1-yl)methyl)isonicotinic acid], above 20 µM. `NC(=O)c1ccncc1Cn1ccc(-c2cccc(-c3ccccc3)c2)n1` [compound 043, 3-((3-([1,1′-biphenyl]-3-yl)-1H-pyrazol-1-yl)methyl)isonicotinamide] came in with a concentration giving a half-maximal response (EC50) of 1 to 20 µM. The compound `c1ccc(Nc2cccc(-c3ccn(Cc4ccccn4)n3)c2)cc1` [compound 044, N-phenyl-3-(1-(pyridin-2-ylmethyl)-1H-pyrazol-3-yl) aniline] displayed an EC50 of 1 to 20 µM. To `c1ccc(Nc2cccc(-c3ccn(Cc4cccnc4)n3)c2)cc1` [compound 045, N-phenyl-3-(1-(pyridin-3-ylmethyl)-1H-pyrazol-3-yl)aniline] belongs 1 to 20 µM. In the case of `c1ccc(Nc2cccc(-c3ccn(CCc4cccnc4)n3)c2)cc1` [compound 046, N-phenyl-3-(1-(2-(pyridin-3-yl)ethyl)-1H-pyrazol-3-yl)aniline] it was 1 to 20 µM; in that of `c1ccc(-c2cccc(-c3nnn(Cc4cccnc4)n3)c2)cc1` [compound 047, 3-((5-([1,1′-biphenyl]-3-yl)-2H-tetrazol-2-yl)methyl)pyridine], 1 to 20 µM; in that of `O=C(Cc1cccnc1)Nc1cccc(-c2ccccc2)c1` [compound 048, N—([1,1′-biphenyl]-3-yl)-2-(pyridin-3-yl)acetamide], 1 to 20 µM. Take `O=S(=O)(F)CCNc1ccc(-c2ccccc2)cc1-c1ccn(Cc2cccnc2)n1` [compound 049, 2-((3-(1-(pyridin-3-ylmethyl)-1H-pyrazol-3-yl)-[1,1′-biphenyl]-4-yl)amino)ethane-1-sulfonyl fluoride]: the half-maximal effective concentration (EC50) fell in the range of 1 to 20 µM. To `CNS(=O)(=O)CCNc1ccc(-c2ccccc2)cc1-c1ccn(Cc2cccnc2)n1` [compound 050, N-methyl-2-((3-(1-(pyridin-3-ylmethyl)-1H-pyrazol-3-yl)-[1,1′-biphenyl]-4-yl)amino)ethane-1-sulfonamide] belongs below 1 µM. As to `O=S1(=O)CCN(c2ccc(-c3ccccc3)cc2-c2ccn(Cc3cccnc3)n2)CC1` [compound 051, 4-(3-(1-(pyridin-3-ylmethyl)-1H-pyrazol-3-yl)-[1,1′-biphenyl]-4-yl)thiomorpholine 1,1-dioxide], the EC50 is above 20 µM. To `CN(C)S(=O)(=O)CCNc1ccc(-c2ccccc2)cc1-c1ccn(Cc2cccnc2)n1` [compound 053, N,N-dimethyl-2-((3-(1-(pyridin-3-ylmethyl)-1H-pyrazol-3-yl)-[1,1′-biphenyl]-4-yl)amino)ethane-1-sulfonamide] belongs below 1 µM.

For `O=S1(=O)CCN(c2cc(-c3ccccc3)cc(-c3ccn(Cc4cccnc4)n3)c2)CC1` [compound 055, 4-(5-(1-(pyridin-3-ylmethyl)-1H-pyrazol-3-yl)-[1,1′-biphenyl]-3-yl)thiomorpholine 1,1-dioxide], the EC50 lay within 1 to 20 µM. In the case of `CNS(=O)(=O)CCNc1ccc(-c2ccccc2)cc1-c1ccn(C)n1` [compound 056, N-methyl-2-((3-(1-methyl-1H-pyrazol-3-yl)-[1,1′-biphenyl]-4-yl)amino)ethane-1-sulfonamide] it was below 1 µM; in that of `Cn1ccc(-c2cc(-c3ccccc3)ccc2NCCS(=O)(=O)O)n1` [compound 057, 2-((3-(1-methyl-1H-pyrazol-3-yl)-[1,1′-biphenyl]-4-yl)amino)ethane-1-sulfonic acid], above 20 µM. Take `Cn1ccc(-c2cc(-c3ccccc3)ccc2NCCS(N)(=O)=O)n1` [compound 058, 2-((3-(1-methyl-1H-pyrazol-3-yl)-[1,1′-biphenyl]-4-yl)amino)ethane-1-sulfonamide]: the EC50 is below 1 µM. In the case of `O=C(O)CCNc1ccc(-c2ccccc2)cc1-c1ccn(Cc2cccnc2)n1` [compound 059, 3-((3-(1-(pyridin-3-ylmethyl)-1H-pyrazol-3-yl)-[1,1′-biphenyl]-4-yl)amino)propanoic acid] it was below 1 µM; in that of `CNC(=O)CCNc1ccc(-c2ccccc2)cc1-c1ccn(Cc2cccnc2)n1` [compound 060, N-methyl-3-((3-(1-(pyridin-3-ylmethyl)-1H-pyrazol-3-yl)-[1,1′-biphenyl]-4-yl)amino)propanamide], below 1 µM. `O=C(O)CCNc1cc(-c2ccccc2)cc(-c2ccn(Cc3cccnc3)n2)c1` [compound 061, 3-((5-(1-(pyridin-3-ylmethyl)-1H-pyrazol-3-yl)-[1,1′-biphenyl]-3-yl)amino)propanoic acid]: the half-maximal effective concentration (EC50) was above 20 µM.

Compound `CNC(=O)CCNc1cc(-c2ccccc2)cc(-c2ccn(Cc3cccnc3)n2)c1` [compound 062, N-methyl-3-((5-(1-(pyridin-3-ylmethyl)-1H-pyrazol-3-yl)-[1,1′-biphenyl]-3-yl)amino)propanamide] had an EC50 of 1 to 20 µM.
